Data from patent US20230413824A1, “AGROCHEMICAL COMPOSITION COMPRISING 3-SUBSTITUTED PHENYLAMIDINE COMPOUNDS AND USE THEREOF” (PI INDUSTRIES LIMITED, priority 2020, published 2023).
Values joined by “and” are separate entries in the source; they are usually repeats but may differ in a detail not shown here. Equal entries are not always repeated. Where two headings read alike, the source gives them in different places.

Key:
Type in all cases: in vivo
Alternaria solani = Alternaria solani test in tomato (preventive, glasshouse); conditions: for pest or weed control at 1 ppm / pest or weed control at 5 ppm / pest or weed control at 20 ppm / pest or weed control at 0.05 ppm / pest or weed control at 0.1 ppm: Alternaria solani, read-out: Observed Efficacy (%)
Phakopsora pachyrhizi = Phakopsora pachyrhizi test in soybean (preventive, glasshouse); conditions: single compound; for pest or weed control at 0.0001 ppm / pest or weed control at 0.001 ppm / pest or weed control at 0.01 ppm / pest or weed control at 0.05 ppm / pest or weed control at 0.1 ppm: Phakopsora pachyrhizi, read-out: Observed Efficacy (%)
Septoria nodorum = experiment: Parastagonospora nodorum/Septoria nodorum/Stagnospora nodorum test in wheat (preventive, glasshouse); conditions: single compound
Method: The single compounds or compound combinations were dissolved in 2% DMSO/Acetone and then mixed with water containing emulsifier to a calibrated spray volume of 50 mL. The spray solutions were poured into spray bottles for further applications.
To test the preventive activity of compounds, healthy young wheat plants, raised in the greenhouse, were sprayed with the single compound or mixture preparation at the stated application rates inside the spray cabinets using hollow cone nozzles. One day after treatment, the plants were inoculated with a suspension containing 2.8×10^6 Stagnospora nodorum inoculum. The inoculated plants were then kept in a greenhouse chamber at 22-25° C. temperature and 90-100% relative humidity for disease expression.
A visual assessment of the performance of the compounds and respective compound combinations was carried out by rating the disease severity (0-100% scale) on treated plants 3, 7 and 10 days after application. Efficacy (% control) of the compounds was calculated by comparing the disease rating in the treatment with the one of the untreated control. The compounds were also assessed for their plant compatibility by recording symptoms like necrosis, chlorosis & stunting. The results are shown for the compound of formula (I-1) to (I-5) in Table E1-E5.

Botrytis cinerea = Botrytis cinerea test in tomato (preventive, glasshouse); conditions: single compound; for pest or weed control at 1 ppm / pest or weed control at 5 ppm / pest or weed control at 20 ppm / pest or weed control at 0.05 ppm / pest or weed control at 0.1 ppm: Botrytis cinerea, read-out: Observed Efficacy (%); for pest or weed control at 1 ppm: Conc. 1 ppm; for pest or weed control at 5 ppm: Conc. 5 ppm; for pest or weed control at 20 ppm: Conc. 20 ppm
Pyricularia oryzae = experiment: whole plant or invertebrate; conditions: Pyricularia oryzae, read-out: Observed Efficacy
Erysiphe cichoracearum = Erysiphe cichoracearum test in cucumber (preventive, glasshouse); conditions: single compound
[1] = Table B3, single compound, Conc. 0.05 ppm, preventive
[2] = Table B3, single compound, Conc. 0.1 ppm, preventive
[3] = Table B4, single compound, Conc. 0.05 ppm, preventive
[4] = Table B4, single compound, Conc. 0.1 ppm, preventive
[5] = single compound, 0.05 ppm, preventive
[6] = single compound, 0.05 ppm, preventive spray
[7] = single compound, 0.1 ppm, preventive
[8] = single compound, 0.1 ppm, preventive spray
[9] = single compound, Conc. 0.05 ppm, preventive spray
[10] = 0.05 ppm, preventive spray on soybean
[11] = 0.1 ppm, preventive spray on soybean
[12] = Conc. 0.05 ppm, soybean, preventive, Table D4
[13] = Conc. 0.1 ppm, soybean, preventive, Table D4
[14] = Conc. 0.1 ppm, preventive spray on tomato, % control vs untreated
[15] = Parastagonospora nodorum, read-out: Observed Efficacy (%)
[16] = preventive spray on tomato, % control vs untreated
[17] = 0.05 ppm, preventive spray on cucumber
[18] = 0.1 ppm, preventive spray on cucumber
[19] = Conc. 0.05 ppm, soybean, preventive, Table D5
[20] = Conc. 0.1 ppm, soybean, preventive, Table D5
[21] = Parastagonospora nodorum, 0.1 ppm, read-out: Observed Efficacy (%)
[22] = Conc. 0.05 ppm, preventive spray on tomato, % control vs untreated
[23] = Table F4, Conc. 0.05 ppm, Botrytis cinerea in tomato, preventive
[24] = Table F4, Conc. 0.1 ppm, Botrytis cinerea in tomato, preventive
[25] = Table F5, Conc. 0.05 ppm, Botrytis cinerea in tomato, preventive
[26] = Table F5, Conc. 0.1 ppm, Botrytis cinerea in tomato, preventive

Compound | Observed Efficacy (%) (Alternaria solani; [1]) | Observed Efficacy (%) (Alternaria solani; [2]) | Observed Efficacy (%) (Alternaria solani; [3]) | Observed Efficacy (%) (Alternaria solani; [4]) | Observed Efficacy (%) (Alternaria solani; [5]) | Observed Efficacy (%) (Alternaria solani; [6]) | Observed Efficacy (%) (Alternaria solani; [7]) | Observed Efficacy (%) (Alternaria solani; [8]) | Observed Efficacy (%) (Phakopsora pachyrhizi; [10]) | Observed Efficacy (%) (Phakopsora pachyrhizi; [11]) | Observed Efficacy (%) (Phakopsora pachyrhizi; [12]) | Observed Efficacy (%) (Phakopsora pachyrhizi; [13]) | Observed Efficacy (%) (Septoria nodorum; 0.05 ppm) | Observed Efficacy (%) (Septoria nodorum; 0.1 ppm) | Observed Efficacy (%) (Botrytis cinerea; [14]) | Observed Efficacy (%) (Erysiphe cichoracearum; [17]) | Observed Efficacy (%) (Erysiphe cichoracearum; [18]) | Observed Efficacy (%) (Phakopsora pachyrhizi; [19]) | Observed Efficacy (%) (Botrytis cinerea; [23]) | Observed Efficacy (%) (Botrytis cinerea; [24]) | also measured
Cn1cc(C(=O)Nc2ccc(F)cc2-c2ccc(Cl)c(Cl)c2)c(C(F)F)n1 [Bixafen, bixafen] | 11% | 29% | 11% | 29% | 11% | 11% | 29% | 29% | 15% | 22% | 15% | 22% | 18% | 29% | 48% |  |  |  |  |  | Observed Efficacy (Alternaria solani; [9]): 11%; Observed Efficacy (Alternaria solani; single compound, Conc. 0.1 ppm, preventive spray): 29%
CCN(C)C=Nc1cc(C)cc(Cc2ccc(C)cc2)c1C [Compound (I-2), N′-(2,5-dimethyl-3-(4-methylbenzyl)phenyl)-N-ethyl-N-methylformimidamide] |  |  |  |  |  |  |  |  |  |  |  |  |  |  |  |  |  |  |  |  | pest or weed control at 1 ppm (Pyricularia oryzae): 13%; pest or weed control at 5 ppm (Pyricularia oryzae): 23%; pest or weed control at 20 ppm (Pyricularia oryzae): 37%; pest or weed control at 1 ppm (Alternaria solani; single compound, 1 ppm, preventive spray): 13%; pest or weed control at 5 ppm (Alternaria solani; single compound, 5 ppm, preventive spray): 23%; pest or weed control at 20 ppm (Alternaria solani; single compound, 20 ppm, preventive spray): 33%; pest or weed control at 0.0001 ppm (Phakopsora pachyrhizi; preventive spray on soybean): 47%; pest or weed control at 0.001 ppm (Phakopsora pachyrhizi; preventive spray on soybean): 57%; pest or weed control at 0.01 ppm (Phakopsora pachyrhizi; preventive spray on soybean): 68%; pest or weed control at 1 ppm (Septoria nodorum; [15]): 13%; pest or weed control at 5 ppm (Septoria nodorum; [15]): 23%; pest or weed control at 20 ppm (Septoria nodorum; [15]): 33%; pest or weed control at 1 ppm (Botrytis cinerea; [16]): 23%; pest or weed control at 5 ppm (Botrytis cinerea; [16]): 33%; pest or weed control at 20 ppm (Botrytis cinerea; [16]): 53%
CCN(C)C=Nc1cc(C)cc(Cc2ccccc2C)c1C [Compound (I-3), N′-(2,5-dimethyl-3-(2-methylbenzyl)phenyl)-N-ethyl-N-methylformimidamide] |  |  |  |  |  |  |  |  |  |  |  |  |  |  |  |  |  |  |  |  | pest or weed control at 1 ppm (Alternaria solani; Table B3, single compound, Conc. 1 ppm, preventive): 17%; pest or weed control at 5 ppm (Alternaria solani; Table B3, single compound, Conc. 5 ppm, preventive): 23%; pest or weed control at 20 ppm (Alternaria solani; Table B3, single compound, Conc. 20 ppm, preventive): 43%; pest or weed control at 1 ppm (Erysiphe cichoracearum; Golovinomyces cichoracearum, 1 ppm, preventive spray on cucumber, read-out: Observed Efficacy (%)): 17%; pest or weed control at 5 ppm (Erysiphe cichoracearum; Golovinomyces cichoracearum, 5 ppm, preventive spray on cucumber, read-out: Observed Efficacy (%)): 27%; pest or weed control at 20 ppm (Erysiphe cichoracearum; Golovinomyces cichoracearum, 20 ppm, preventive spray on cucumber, read-out: Observed Efficacy (%)): 47%; pest or weed control at 0.0001 ppm (Phakopsora pachyrhizi; preventive spray on soybean): 47%; pest or weed control at 0.001 ppm (Phakopsora pachyrhizi; preventive spray on soybean): 53%; pest or weed control at 0.01 ppm (Phakopsora pachyrhizi; preventive spray on soybean): 65%; pest or weed control at 1 ppm (Septoria nodorum; [15]): 13%; pest or weed control at 5 ppm (Septoria nodorum; [15]): 27%; pest or weed control at 20 ppm (Septoria nodorum; [15]): 40%; pest or weed control at 1 ppm (Botrytis cinerea; [16]): 57%; pest or weed control at 5 ppm (Botrytis cinerea; [16]): 67%; pest or weed control at 20 ppm (Botrytis cinerea; [16]): 77%
O=[N+]([O-])c1cc(C(F)(F)F)c(Cl)c([N+](=O)[O-])c1Nc1ncc(C(F)(F)F)cc1Cl [Fluazinam] | 7% | 16% | 7% | 16% | 7% |  | 16% |  |  |  | 2% | 10% |  |  |  | 11% | 18% | 2% | 29% | 38% | pest or weed control at 0.05 ppm (Alternaria solani; [6]): 7%; pest or weed control at 0.1 ppm (Alternaria solani; [8]): 16%; pest or weed control at 0.05 ppm (Erysiphe cichoracearum; Golovinomyces cichoracearum, 0.05 ppm, cucumber, preventive, read-out: Observed Efficacy (%)): 11%; pest or weed control at 0.1 ppm (Erysiphe cichoracearum; Golovinomyces cichoracearum, 0.1 ppm, cucumber, preventive, read-out: Observed Efficacy (%)): 18%; pest or weed control at 0.05 ppm (Phakopsora pachyrhizi; [10]): 2%; pest or weed control at 0.1 ppm (Phakopsora pachyrhizi; [11]): 10%; Observed Efficacy (%) (Phakopsora pachyrhizi; [20]): 10%; pest or weed control at 0.1 ppm (Septoria nodorum; [21]): 21%; pest or weed control at 0.05 ppm (Botrytis cinerea; [22]): 29%; pest or weed control at 0.1 ppm (Botrytis cinerea; [14]): 38%
O=C(NCCc1ncc(C(F)(F)F)cc1Cl)c1ccccc1C(F)(F)F [Fluopyram] | 26% | 35% | 26% | 35% | 26% |  | 35% |  |  |  | 7% | 10% |  |  |  |  |  | 7% | 38% | 45% | pest or weed control at 0.05 ppm (Alternaria solani; [6]): 26%; pest or weed control at 0.1 ppm (Alternaria solani; [8]): 35%; pest or weed control at 0.05 ppm (Erysiphe cichoracearum; Golovinomyces cichoracearum, 0.05 ppm, preventive spray on cucumber, read-out: Observed Efficacy (%)): 32%; pest or weed control at 0.1 ppm (Erysiphe cichoracearum; Golovinomyces cichoracearum, 0.1 ppm, preventive spray on cucumber, read-out: Observed Efficacy (%)): 39%; pest or weed control at 0.05 ppm (Phakopsora pachyrhizi; [10]): 7%; pest or weed control at 0.1 ppm (Phakopsora pachyrhizi; [11]): 10%; Observed Efficacy (%) (Phakopsora pachyrhizi; [20]): 10%; pest or weed control at 0.05 ppm (Septoria nodorum; Parastagonospora nodorum, 0.05 ppm, read-out: Observed Efficacy (%)): 8%; pest or weed control at 0.1 ppm (Septoria nodorum; [21]): 21%; pest or weed control at 0.05 ppm (Botrytis cinerea; [22]): 38%; pest or weed control at 0.1 ppm (Botrytis cinerea; [14]): 45%
C[C@@H]1CC(C)(C)c2cccc(NC(=O)c3cn(C)nc3C(F)F)c21 [Inpyrfluxam] |  |  | 14% | 23% |  | 14% |  | 23% | 18% | 30% | 18% | 30% | 12% | 29% | 38% | 29% | 38% |  | 25% | 38% | Observed Efficacy (%) (Erysiphe cichoracearum; 0.05 ppm, cucumber, preventive): 29%; Observed Efficacy (%) (Erysiphe cichoracearum; 0.1 ppm, cucumber, preventive): 38%; Observed Efficacy (%) (Botrytis cinerea; [25]): 25%; Observed Efficacy (%) (Botrytis cinerea; [26]): 38%; Observed Efficacy (%) (Botrytis cinerea; [22]): 35% and 25%
propineb |  |  | 20% | 31% | 20% | 20% |  | 31% | 20% | 33% | 20% | 33% | 12% | 24% | 22% | 14% | 43% | 20% | 15% | 22% | Observed Efficacy (Alternaria solani; [9]): 20%; Observed Efficacy (%) (Erysiphe cichoracearum; 0.05 ppm, cucumber, preventive): 14%; Observed Efficacy (%) (Erysiphe cichoracearum; 0.1 ppm, cucumber, preventive): 43%; Observed Efficacy (%) (Phakopsora pachyrhizi; [20]): 33%; Observed Efficacy (%) (Botrytis cinerea; [25]): 15%; Observed Efficacy (%) (Botrytis cinerea; [26]): 22%; Observed Efficacy (%) (Botrytis cinerea; [22]): 15%
